What all share (assay type): cell-based
Data set [1] relates to Atoh1. Nature of the data set: Atoh1 level after proteasome inhibition in HEK cells transfected with FLAG-Atoh1. To be noted: MG132 10 uM, 3 hours, vs DMSO. The method, then: (§1) FIGS. 2A-E. Atoh1 is degraded by the ubiquitin-proteasome pathway. […] HEK cells were transfected with FLAG-Atoh1 plasmid (1 ug/ml) for 24 hours, and incubated with either DMSO or MG132 (10 uM) for 3 hours and immunoprecipitated using FLAG (Atoh1) or beta-actin (loading control) antibodies. (B) FLAG-HA-Atoh1 293T cells were treated with cycloheximide (100 ug/ml) and MG132 (10 uM) at the indicated times and immunoprecipitated with FLAG (Atoh1) or beta-actin (loading control) antibodies. Time of treatment is indicated. (C) Half-lives based on densitometry from 3 experiments are shown. The ratio of Atoh1 to β-actin was plotted after normalization. Error bars indicate SEM. (D) & (E). Atoh1 is polyubiquitylated and degraded by the ubiquitin-proteasome pathway. FLAG-HA-Atoh1 293T cells were treated with either DMSO or MG132 (10 uM) for 6 hours. Lysates were immunoprecipitated with anti-FLAG antibody and subjected to immunoblotting with a ubiquitin antibody. FLAG was used to assess immunoprecipitation.
To determine if the ubiquitin-proteasome pathway was involved in Atoh1 degradation, HEK cells were transfected with FLAG-Atoh1 (1 μg/ml) using Lipofectamine 2000 (Invitrogen) for […] and either DMSO or MG132 (10 μM) for […]. Transfected cells were lysed in Pierce IP Lysis Buffer (Thermo) containing 1× complete protease inhibitors and 1×PhosSTOP phosphatase inhibitors (Roche). […]

In data set [2] the test system is Atoh1. Description: Cycloheximide chase of Atoh1 with proteasome inhibitor or Huwe1 shRNA in FLAG-HA-Atoh1 293T cells. The note with it: cycloheximide 100 ug/ml plus MG132 10 uM. The method, then: as §1, with “Atoh1 is polyubiquitylated and degraded by the ubiquitin-proteasome pathway. FLAG-HA-Atoh1 293T cells were treated with either DMSO or MG132 (10 uM) for 6 hours. Lysates were immunoprecipitated with anti-FLAG antibody and subjected to immunoblotting with a ubiquitin antibody. FLAG was used to assess immunoprecipitation.” left out
FIGS. 9A-D. Huwe1 plasmid increased and Huwe1 siRNA inhibited degradation of Atoh1. […] Quantification of Atoh1, Huwe1 and a loading control (HSC70) were performed by Western blotting and densitometry. […] Atoh1 (FLAG) and Huwe1 were analyzed by Western blotting and densitometry normalized to loading controls in three experiments. […]
HEK cells were transfected with either FLAG-Atoh1 (wild-type), or indicated mutant FLAG-Atoh1 plasmids (1 μg/ml) using Lipofectamine 2000 (3 μl per 1 μg of cDNA, Invitrogen). […] Protein bands were quantified by densitometry. The half-lives of indicated proteins were calculated using GraphPad Prism 6 software and a one-phase exponential-decay model.

In data set [3] the test system is Atoh1. Nature of the data set: Polyubiquitylation of Atoh1: anti-FLAG immunoprecipitation, ubiquitin immunoblot. To be noted: MG132 10 uM, 6 hours. As to the method:
as §1, with “immunoprecipitation. […]” for “immunoprecipitation.”
We then assessed polyubiquitylation of Atoh1 in the presence of a proteasome inhibitor which would prevent degradation of the ubiquitinated protein. […] The cell lysates were immunoprecipitated with anti-FLAG antibody, and the pattern of ubiquitylation was assessed with an anti-ubiquitin antibody.
In general terms: In western blotting, separated proteins are transferred to a membrane and probed.

The test system of data set [4] is Atoh1. Nature of the data set: Atoh1 level in P1 organ of Corti explants treated with proteasome inhibitor. The note with it: P1 mouse organ of Corti, MG132 10 uM, 3 hours, vs DMSO. As to the method:
FIG. 10. Inhibition of proteasome activity stabilizes Atoh1 in the cochlea. The organ of Corti from a P1 mouse was treated with proteasome inhibitor, MG132 (10 uM) for 3 hours. Atoh1 levels were higher in the MG132-treated organ of Corti. DMSO served as control; β-actin is a loading control.
Cochlear tissues were dissected from 1-day postnatal CD-1 mice (Charles River Laboratories). Spiral ganglion, Reissner's membrane, and the hook region of the organ of Corti were removed to obtain a flat cochlear surface preparation (Parker et al., 2010). Explants were plated onto 4-well plates (Greiner Bio-One) coated with Matrigel (BD Biosciences) diluted 1:10 in DMEM supplemented with 10% fetal bovine serum overnight.
To test whether proteasomal activity regulated Atoh1 in the cochlea we treated P1 organ of Corti explants with proteasome inhibitor, MG132 (10 uM).

The test system of data set [5] is FLAG-HA-Atoh1 293T cells. Nature of the data set: Cycloheximide chase, half-life of Atoh1 by Western blotting and densitometry. The method, then:
FIGS. 1A-B. Atoh1 is a short-lived protein. (A) FLAG-HA-Atoh1 293T cells were treated with cycloheximide (100 ug/ml) and harvested at the indicated times. Lysates were processed for Western blotting with FLAG antibody (Atoh1) or β-actin antibody (loading control). Labels indicate the time of chase. (B) Protein half-lives based on densitometry. The ratio of Atoh1 to β-actin was plotted after normalizing to the initial ratio set to 100. Error bars indicate SEM.
HEK cells were transfected with either FLAG-Atoh1 (wild-type), or indicated mutant FLAG-Atoh1 plasmids (1 μg/ml) using Lipofectamine 2000 (3 μl per 1 μg of cDNA, Invitrogen). Forty-eight hours after transfection, 100 μg/ml cycloheximide (Sigma) was added to block protein synthesis. Cells were harvested at 0, 30, 60, 120, and 240 minutes. Equal amounts of protein from each treatment were taken for Western blotting. Protein bands were quantified by densitometry. The half-lives of indicated proteins were calculated using GraphPad Prism 6 software and a one-phase exponential-decay model.
To determine the half-life of Atoh1, we used cycloheximide to prevent new protein synthesis and followed the time course of disappearance of previously synthesized Atoh1 by Western blotting during a chase period. We transfected 293T cells with FLAG-HA-Atoh1 and treated with cycloheximide at 48 hours after transfection.

Entries after “also recorded” stand apart in the source; their conditions may differ. Peptide text beside a SMILES is read from it. * marks the point of attachment. Cbz = O=C(OCc1ccccc1)*

Consider `CC(C)C[C@@H](C=O)NC(=O)[C@H](CC(C)C)NC(=O)[C@H](CC(C)C)NC(=O)OCc1ccccc1` [MG132] (Cbz-Leu-Leu-Leu-aldehyde), for which, in data set [1], the “level of Atoh1” value is “significantly increased; also recorded: stabilized Atoh1 expression”. The “half-life of Atoh1” value in data set [2] is on record as “extended the half-life”. In addition, in data set [3] (FLAG-HA-Atoh1 293T cells, reprobed blot and input protein), the “level of Atoh1 protein” value was “increased the level of protein”. In data set [3] (FLAG-HA-Atoh1 cells, vs DMSO), the “density of high molecular weight poly-ubiquitin forms of Atoh1” value is “increased the density”. The “Atoh1 level in organ of Corti” value in data set [4] was “increased; also recorded: higher”.

B1: Atoh1: wild-type Atoh1 protein, FLAG- or FLAG-HA-tagged, expressed in HEK/293T cells (protein)
chain: MSRLLHAEEWAEVKELGDHHRQPQPHHLPQPPPPPQPPATLQAREHPVYPPELSLLDSTDPRAWLAPTLQGICTARAAQYLLHSPELGASEAAAPRDEVDGRGELVRRSSGGASSSKSPGPVKVREQLCKLKGGVVVDELGCSRQRAPSSKQVNGVQKQRRLAANARERRRMHGLNHAFDQLRNVIPSFNNDKKLSKYETLQMAQIYINALSELLQTPSGGEQPPPPPASCKSDHHHLRTAASYEGGAGNATAAGAQQASGGSQRPTPPGSCRTRFSAPASAGGYSVQLDALHFSTFEDSALTAMMAQKNLSPSLPGSILQPVQEENSKTSPRSHRSDGEFSPHSHYSDSDEAS
modifications: left off: large carriers
notes: wild-type Atoh1 protein, FLAG- or FLAG-HA-tagged, expressed in HEK/293T cells
With B1, the “turnover rate of Atoh1” value in data set [5] is given as “less than 1 hour”.

These data come from patent publication US12618070B2, “Increasing Atoh1 life to drive sensorineural hair cell differentiation” (Massachusetts Eye and Ear Infirmary, priority 2014, dated 2026).
